“Also recorded” adds a separate entry of the source.
Assays:
HL-60 cells [1] = test: Apoptosis of HL-60 cells after 2 days; assay type: cell-based, human
From the text: (§1) Secondly, the effect of compounds of the invention may be compared to the natural inhibitor of Syk, piceatannol.

[2] = Viability of HL-60 cells after 3 days, XTT method; assay type: cell-based, human; conditions: human, HL-60 cells
From the text: as §1

human PBMC monocytes = test: Effect on human PBMC monocytes; assay type: cell-based; conditions: FIGS. 11 and 12
From the text: FIG. 12 illustrates the effect of AV 74S treatment on monocytes;
FIGS. 11 and 12 compare the effect of compounds of the invention—AV 61S and AV 74S—on human PBMC T and B cells (FIG. 11) versus human PBMC monocytes (FIG. 12). […] T cells contain ZAP-70, rather than Syk, but B lymphocytes do contain Syk. […] As such, the effect seen on the B and T cells is believed to be due to the activity on the B cells, not the T cells.

Jurkat cells = test: Jurkat cell survival after a seven day period (Syk-containing); assay type: cell-based; conditions: 50 μg/ml; seven days; FIG. 4
Experimental: FIG. 4 illustrates the effect of AV 61S and AV 74S on Jurkat cell survival after a seven day period;
(§2) The jurkat E6.1 line is a Syk-deficient line; in fact, AV 61S after 7 days has no effect on this cell line (i.e., neither apoptosis nor inhibition, see […]). […] The viability study has been performed after 24 and 48 hours of incubation, each time for 3 evaluations; within 1, 3 and 6 hours.

E6.1 Jurkat cells = test: E6.1 Jurkat (Syk-deficient) cell survival and viability; assay type: cell-based
Experimental: FIG. 18 illustrates, in comparison with cyclosporin-treated Jurkat cells, the viability of E6.1 Jurkat cells treated with differing concentrations of AV 61S or AV 74S after 24 hours; and
FIG. 19 illustrates, in comparison with cyclosporin-treated Jurkat cells, the viability of E6.1 Jurkat cells treated with differing concentrations of AV 61S or AV 74S after 48 hours.
as §2

PHA-activated PBMCs = test: Inhibition of PHA-activated PBMCs (lymphocyte proliferation, thymidine incorporation); assay type: cell-based, human; conditions: varying concentrations
HL-60 cells [3] = test: Viability of HL-60 cells after 3 days, XTT method; assay type: cell-based, human
From the text: as §1

Row | SMILES | Apoptosis of HL-60 cells (HL-60 cells [1]; Pic. 10 μM alone) [%] | Apoptosis of HL-60 cells (HL-60 cells [1]; Pic. 30 μM alone) [%] | viability at 3 days, 10 μM ([2]; Pic 10 μM alone) [%] | viability at 3 days, 30 μM ([2]; Pic 30 μM alone) [%] | effect on monocytes as compared to T and B cells (human PBMC monocytes) | killing of Syk-containing Jurkat cells (Jurkat cells) [%] | viability of E6.1 Jurkat cells (E6.1 Jurkat cells; 24 and 48 hours of incubation, FIGS. 18 and 19) | effect on Syk-deficient Jurkat E6.1 cell survival (E6.1 Jurkat cells; after 7 days, FIG. 3) | inhibitory effect on PHA-activated PBMCs (PHA-activated PBMCs; DMSO carrier, FIG. 1) | inhibitory effect on PHA-activated PBMCs (PHA-activated PBMCs; PBS carrier, FIG. 2) | viability of HL-60 cells (HL-60 cells [3]; 50 μg/ml + Pic 10 μM) | viability of HL-60 cells (HL-60 cells [3]; 50 μg/ml + Pic 30 μM) | viability of HL-60 cells (HL-60 cells [3]; 50 μg/ml, no piceatannol) | viability of HL-60 cells (HL-60 cells [3]; 100 μg/ml + Pic 10 μM) | viability of HL-60 cells (HL-60 cells [3]; 100 μg/ml + Pic 30 μM) | viability of HL-60 cells (HL-60 cells [3]; 100 μg/ml, no piceatannol)
1 | Oc1cc(O)cc(/C=C/c2ccc(O)c(O)c2)c1 [piceatannol, reference compound] | 20 | 33 | 89 | 79 | – | – | – | – | – | – | – | – | – | – | – | –
2 | CC(CO)OCC(C)OCC(C)OCC(C)OCC(C)OCC(C)OCC(C)OC[C@H](Cc1ccccc1)NC(=O)CCc1ccc(O)cc1 (stereo partly shown) [AV 61S] | – | – | – | – | more profound on monocytes | ~100 | do not kill them | no effect; also recorded: lack of effect | inhibitory effect | lesser inhibitory effect | 97 % of control | 83 % of control | 81 % of control | 59 % of control | 23 % of control | 36 % of control

From patent US20090306214A1, “Use of Syk Tyrosine Kinase Inhibitors for the Treatment of Cell Proliferative Disorders” (priority 2006, published 2009)
